The record followed here is patent US8283324B2, “Immunomodulatory and anti-tumour peptides” (Centro de Ingenieria Genetica y Biotecnologia, priority 2006, dated 2012).

Assay [1] in a line: competition ELISA for heparin-binding capacity. As to conditions: peptides at 2 μM with 250 units of heparin; FIG. 2. The protocol: This assay consists on a competition ELISA system, similar to the previously described one. The biotinylated LALF32-51 peptide was adsorbed to polystyrene plates (Costar, USA) in 1×PBS and incubated overnight at 4° C. Analogous peptides L-2, L-8, L-12 and L-20 were mixed at 2 μM with 250 units of heparin (Sodic Heparin, 5,000 U/ml, Liorad) in 1×PBS plus 0.1% of bovine serum albumin (BSA). Afterwards, mixes were added to an ELISA plate containing 0.02 μM of the biotinylated LALF32-51 peptide adsorbed to the solid surface. After a 1 h-incubation at room temperature, plates were washed five times with washing solution and the biotinylated LALF32-51 peptide fixed to the solid surface was detected by incubating for 45 min at 37° C. with streptavidin-peroxidase conjugate at a 1:2,000. Afterwards, plates were washed five times with washing solution and the substrate solution was added. After an additional incubation for 15 min, the reactions were stopped with 2 M sulphuric acid solution. The lack of heparin binding to the analogous peptides correlates with the […] optical density, because they are unable to displace the heparin bound to the biotinylated LALF32-51 peptide adsorb to the solid surface. The unlabeled LALF32-51 peptide at a 100× molar excess was used as control of the assay.
Background: An ELISA detects its analyte on a solid surface through an enzyme-linked reagent.

For assay [2], the system named is L929 murine fibroblast cells. Kind of assay: growth of cells, crystal violet, L929. The format is cell-based. The settings on record: 9 μM to 300 μM, 72 h; FIG. 9. The protocol: (§1) For this assay, TC-1, H-125 (non-small human ling cancer cells) and L929) murine fibroblast) cells were seeded in 96-well culture plates (Costar) at a 2×10^4 cells/ml in Dulbecco's modified Eagle's medium (DMEM)(Gibco) supplemented with Calf Fetal Serum (Gibco). After 24 h, the peptides were added to the culture in a range of 9 μM to 300 μM. […] Plates were extensively washed with tap water and plates were read at 562 nm. A pro-apoptotic peptide with a marked anti-proliferative effect in vitro was employed as positive control (Perea, S., et al (2004) Antitumor Effect of a Novel Proapoptotic Peptide that Impairs the Phosphorylation by the Protein Kinase 2 Cancer Research 64: 7127-7129).

The next assay deals with IFN-α gene. The experiment in a line: IFN-α gene expression in human mononuclear cells (RT-PCR). As to conditions: 40 μg/ml, 18 h. The format is cell-based. The method, then:
(§2) For this assay, human mononuclear cells were isolated by a Ficoll-Hypaque gradient from a leukocyte concentrate or “Buffy Coat” of a donor. Up to 5×10^6 were seeded in 24-well plates in RPMI 1640 medium supplemented with 10% calf fetal serum. Each peptide was further added at 40 μg/ml in a 0.1 ml volume of RPMI medium and cells were cultured for 18 h at 37° C. and 5% of CO2. Total RNA was extracted by using the TriReagent method. Afterwards, the expressions of IFN-α, IFN-γ and IL-12 genes were determined by the reverse transcription reaction and PCR amplification (RT-PCR kit, Perkin Elmer). Results are shown as relative amounts of messenger RNA normalized against expression levels of the β-actin housekeeping gene.

A further assay concerns IL-12 gene. Kind of assay: IL-12 gene expression in human mononuclear cells (RT-PCR). The settings on record: 40 μg/ml, 18 h; mRNA normalized against β-actin; FIG. 3A. The format is cell-based. The method, then:
as §2

The test system of assay [3] is TC-1 tumor cells. Kind of assay: anti-tumoral effect in the TC-1 tumor model. The settings on record: 4 mg per kg s.c. The format is in vivo. The method, then:
Eight-to-ten weeks-old C57BI/6 female mice were used for this assay (n=10 animals per experimental group). For tumor graft, TC-1 tumor cells derived from C57BI/6 malignant epithelial lung cells were used, being resuspended in phosphate-buffered saline (PBS). An amount of 50,000 cells in a 200 μl volume was inoculated to mice by subcutaneous route in the right hind limb. The first peptide administration was carried out by subcutaneous route in the right flank once tumor reached a 100 mm^3 volume, and the second was carried out after 10 days. In this assay, a 4 mg per kg of weight dose was evaluated (80 μg/mice). Animal survival and tumor mass were the parameters evaluated to measure the anti-tumoral effect peptides of interest, as shown in FIGS. 4A and 4B. […] The Log Rank method was used as statistical analysis for detecting significant differences between groups.

Assay [4] concerns TC-1 cells. Kind of assay: double challenge schedule with TC-1 tumor cells. The format is in vivo. The settings on record: second challenge, day 49 after the first challenge. The protocol: Animals without established tumors in the schedule of the previous example (n=6) were further challenged for a second time with 50,000 TC-1 cells in a 200 μl volume in PBS by subcutaneous route in the left hind limb (day 49 after the first challenge). The same amount of tumor cells were inoculated to “naïve” mice from the same litter as control group of the experiment, to guarantee the homogeneity in age, and were kept under the same conditions without receiving the peptide (n=10 animals). Parameters evaluated to measure the anti-tumoral effect of the L-2 peptide included the time of tumor grafting and animal survival.

The subject of assay [5] is TC-1 cells. The experiment in a line: growth of tumor cells, crystal violet, TC-1. In kind it is cell-based, C57BI/6. As to conditions: 9 μM to 300 μM, 72 h; FIG. 9. The method, then:
as §1

For another assay, the system named is IFN-γ gene. The experiment in a line: IFN-γ gene expression in human mononuclear cells (RT-PCR). The format is cell-based. As to conditions: 40 μg/ml, 18 h; mRNA normalized against β-actin; FIG. 3A. The method, then:
as §2

Assay [6] concerns TC-1 tumor cells. Kind of assay: prophylactic schedule of treatment in the TC-1 tumor model. The format is in vivo. The settings on record: 4 mg/kg, two injections before inoculation of TC-1 cells. The method, then:
Eight-to-ten weeks-old C57BI/6 female mice were used for this assay (n=10 animals per experimental group). For tumor graft, TC-1 tumor cells, being resuspended in phosphate-buffered saline (PBS). Mice were first injected with the L-2 peptide (4 mg of peptide/kg of body weight). After 7 days, they received a second injection of the same dose; after 14 days of the first peptide injection, animals were inoculated with 50,000 cells in a 200 μl volume by subcutaneous route in the right hind limb. Parameters evaluated for measuring the anti-tumoral effect of the peptide included the time for tumor grafting (FIG. 6A) and the survival of animals (FIG. 6B).

The mark [7] stands for this setting: at 100 mm^3 tumor volume and after 10 days, FIG. 4.

On to “HARIKPTFRRLKWKYKGKFW [Peptide L-2, alanine-substituted analogue of LALF 32-51]”, for which the heparin binding result in assay [1] is given as “unable to bind heparin”. The anti-proliferative effect result in [2] is “no effect was detected”; in the assay with TC-1 cells [5], “dose-dependent anti-proliferative effect”. For the same sequence, in the assay with IFN-α gene (FIG. 3B), the “expression of the IFN-α gene compared to the LALF32-51 peptide” value is reported as “more effective”. The “expression of the IFN-α gene” value with IFN-α gene (mRNA normalized against β-actin, FIG. 3A) is reported as “capable of inducing the expression”. Moreover, the “expression of the IL-12 gene” value in the assay on IL-12 gene was “capable of inducing the expression”. The survival of mice result in the assay with TC-1 tumor cells [3] (setting [7]) is recorded as “prolonging survival of mice”. The “tumor progression (tumor mass)” value in the assay with TC-1 tumor cells [3] (setting [7]) is on record as “effective for inhibiting tumor progression”. The “survival of animals compared to the LALF32-51 peptide” value with TC-1 tumor cells [3] (Log Rank, *p<0.05) was “significantly increase the survival of animals”. The “time of tumor grafting” value in the assay with TC-1 cells [4] (FIG. 7A) is recorded as “retarding the establishment of the tumor”. The animal survival entry in the assay with TC-1 cells [4] (FIG. 7B) is recorded as “increasing animal survival”. For the same sequence, in the assay on IFN-γ gene, the “expression of the IFN-γ gene” value is “capable of inducing the expression”. The “time for tumor grafting” value with TC-1 tumor cells [6] (FIG. 6A) was “effective to prevent the development of the tumor”. Moreover, the survival of animals result with TC-1 tumor cells [6] (FIG. 6B) was “increased the survival of the animals”.
